Reference: patent publication US20200405868A1, “GEL-FORMING POLYPEPTIDES” (priority 2018, published 2020)
Where a SMILES comes first, the peptide text is derived from it. [ ]: non-standard residue; d: D form. The star is where a group is joined. Palmitoyl = CCCCCCCCCCCCCCCC(=O)*; AEEA = NCCOCCOCC(=O)O

What was measured:
[1] = Compound gel-forming ability in water (visual inspection, tube tapping assay, tilted tube assay); format: physicochemical; settings: for gel formation at 11% w/w: 11% w/w in water; for gel formation at 20% w/w: 20% w/w in water; for gel formation in aqueous solution, 6% / propensity to form gels, chimeric or mutated polypeptides, 6%: 6% w/w;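 on all read-outs here: peptides mixed with de-ionized water at about 22-25 °C, judged after 20 min by eye plus tube tapping (10 taps, moves counted) and 90° tilt mobility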
[2] = target: T1, bradykinin receptor 2 (BDKRB2) (Homo sapiens, UniProt P30411); experiment: BDKRB2 arrestin assay (Discoverx), antagonistic; format: cell-based
T1 sequence (P30411 1-391): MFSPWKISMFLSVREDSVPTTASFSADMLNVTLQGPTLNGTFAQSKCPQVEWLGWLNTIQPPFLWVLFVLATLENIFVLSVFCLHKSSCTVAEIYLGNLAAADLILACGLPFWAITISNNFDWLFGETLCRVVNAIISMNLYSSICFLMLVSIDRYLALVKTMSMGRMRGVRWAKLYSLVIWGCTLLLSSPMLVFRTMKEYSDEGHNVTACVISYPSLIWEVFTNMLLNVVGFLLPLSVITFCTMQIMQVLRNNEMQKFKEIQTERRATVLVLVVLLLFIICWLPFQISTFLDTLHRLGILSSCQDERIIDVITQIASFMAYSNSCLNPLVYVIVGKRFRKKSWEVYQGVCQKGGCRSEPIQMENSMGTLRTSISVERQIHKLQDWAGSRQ
Method: For the Arrestin assays, PathHunter cell lines (Discoverx Inc.) were expanded from freezer stocks, and seeded in a total volume of 20 μL into white walled, 384-well microplates and incubated at 37 C for the appropriate time prior to testing. […] For antagonistic activity determination, cells were pre-incubated with antagonist followed by agonist challenge at the EC80 concentration. Intermediate dilution of sample stocks was performed to generate 5× sample in assay buffer, and 5 μL of 5× sample was added to cells and incubated at 37° C. or room temperature for 30 minutes. Vehicle concentration was 1%. Then, 5 μL of 6×EC80 agonist in assay buffer was added to the cells and incubated at 37 C or room temperature for 90 or 180 minutes.
Assay signal was generated through a single addition of 12.5 or 15 μL (50% v/v) of PathHunter Detection reagent cocktail, followed by an one hour incubation at room temperature. The microplates were read following signal generation with a PerkinElmer Envision™ instrument for chemiluminescent signal detection. The compound activity was analyzed using a CBIS data analysis suite (ChemInnovation, CA). […] For antagonistic activity assays, percentage inhibition was calculated using the following formula: % Inhibition=100%×(1−(mean RLU of test sample−mean RLU of vehicle control)/(mean RLU of EC80 control−mean RLU of vehicle control)).

[3] = target: T2, CRH receptor 2 (CRHR2) (Homo sapiens, UniProt Q13324); experiment: CRHR2 cAMP assay (Discoverx), agonistic; format: cell-based
T2 sequence (Q13324 1-411): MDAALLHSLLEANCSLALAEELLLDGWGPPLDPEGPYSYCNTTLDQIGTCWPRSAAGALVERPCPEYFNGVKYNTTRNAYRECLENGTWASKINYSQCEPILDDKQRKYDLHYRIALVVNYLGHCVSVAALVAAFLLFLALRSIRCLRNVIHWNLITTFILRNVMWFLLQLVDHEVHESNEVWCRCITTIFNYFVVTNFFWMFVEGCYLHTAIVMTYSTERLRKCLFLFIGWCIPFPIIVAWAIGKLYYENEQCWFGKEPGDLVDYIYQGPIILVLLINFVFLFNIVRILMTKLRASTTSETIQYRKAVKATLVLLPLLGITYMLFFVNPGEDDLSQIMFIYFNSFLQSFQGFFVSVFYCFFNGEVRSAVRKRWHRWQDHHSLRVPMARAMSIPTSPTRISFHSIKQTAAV
Method: (§1) The agonistic activities toward MC1R, MC4R, CRHR2, PTHR1, and OPRK1 were assyed with an MC1R cAMP assay, an MC4R cAMP assay, a CRHR2 cAMP assay, a PTHR1 cAMP assay and an OPRK1 cAMP assay from Discoverx Inc. (Fremont, Calif.), respectively. The antagonistic activities toward bradykinin receptor 2 (BDKRB2) and GnRH receptor (GnRHR or LHRHR) were assayed with a BDKRB2 arrestin assay and a GnRHR calcium flux assay from Discoverx, respectively.
(§2) For the analysis of Gs-coupled cAMP production, cAMP Hunter cell lines were expanded from freezer stocks, and cells were seeded in a total volume of 20 μL into white walled, 384-well microplates and incubated at 37 C for the appropriate time prior to testing. The cAMP modulation was determined using the DiscoverX HitHunter cAMP XS+ assay. For agonistic activity determination, cells were incubated with sample to induce response. Media was aspirated from cells and replaced with 15 μL 2:1 HBSS/10 mM Hepes: cAMP XS+ Ab reagent. Intermediate dilution of sample stocks was performed to generate 4× sample in assay buffer, and 5 μL of 4× sample was added to cells and incubated at 37 C or room temperature for 30 or 60 minutes. Vehicle concentration was 1%. The compound activity was analyzed using a CBIS data analysis suite (ChemInnovation, CA). For Gs-coupled agonistic assays, percentage activity is calculated using the following formula: % Activity=100%×(mean RLU of test sample−mean RLU of vehicle control)/(mean RLU of MAX control−mean RLU of vehicle control).

[4] = target: T3, PTH receptor 1 (PTHR1) (Homo sapiens, UniProt Q03431); experiment: PTHR1 cAMP assay (Discoverx), agonistic; format: cell-based
T3 sequence (Q03431 27-593): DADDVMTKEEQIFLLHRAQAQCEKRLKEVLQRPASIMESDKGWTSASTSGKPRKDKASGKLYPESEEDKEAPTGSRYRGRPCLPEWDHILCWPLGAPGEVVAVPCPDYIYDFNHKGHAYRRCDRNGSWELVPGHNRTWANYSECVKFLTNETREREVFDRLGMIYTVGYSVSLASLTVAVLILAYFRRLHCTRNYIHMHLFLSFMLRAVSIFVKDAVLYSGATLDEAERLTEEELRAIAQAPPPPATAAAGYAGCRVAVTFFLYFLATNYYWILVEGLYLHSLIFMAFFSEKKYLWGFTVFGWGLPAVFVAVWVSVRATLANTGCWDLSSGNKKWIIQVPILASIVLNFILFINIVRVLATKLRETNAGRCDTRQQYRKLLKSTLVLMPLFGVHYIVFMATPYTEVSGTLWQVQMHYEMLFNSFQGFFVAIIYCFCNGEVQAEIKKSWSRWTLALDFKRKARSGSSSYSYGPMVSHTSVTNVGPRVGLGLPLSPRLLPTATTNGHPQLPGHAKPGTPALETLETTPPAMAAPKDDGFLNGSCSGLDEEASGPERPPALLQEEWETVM
Method: as §1
as §2, with “Intermediate dilution of sample stocks was performed to generate 4× sample in assay buffer, and 5 μL of 4× sample was added to cells and incubated at 37 C or room temperature for 30 or 60 minutes. Vehicle concentration was 1%.” left out

| Compound | gel formation at 11% w/w [1] | gel formation at 20% w/w [1] | gel formation in aqueous solution, 11% ([1]; Table 3, 11% w/w) | gel formation in aqueous solution, 20% ([1]; Table 3, 20% w/w) | Max Activity % of positive control [2] | gel formation in aqueous solution, 6% ([1]; Table 3) | propensity to form gels, chimeric or mutated polypeptides, 6% ([1]; Table 5) | propensity to form gels, chimeric or mutated polypeptides, 11% ([1]; Table 5, 11% w/w) | Max Activity % of positive control [3] | propensity to form gels, chimeric or mutated polypeptides, 20% ([1]; Table 5, 20% w/w) | Max Activity % of positive control [4] | other results |
| --- | --- | --- | --- | --- | --- | --- | --- | --- | --- | --- | --- | --- |
| N=C(N)NCCC[C@@H](N)C(=O)N[C@@H](CCCNC(=N)N)C(=O)N1CCC[C@H]1C(=O)N1C[C@H](O)C[C@H]1C(=O)NCC(=O)N[C@@H](Cc1cccs1)C(=O)N[C@@H](CO)C(=O)N1Cc2ccccc2C[C@@H]1C(=O)N1[C@H](C(=O)N[C@@H](CCCNC(=N)N)C(=O)O)C[C@@H]2CCCC[C@@H]21 [SEQ ID NO:32, (D-Arg)-Arg-Pro-Hyp-Gly-Thi-Ser-(D-Tic)-Oic-Arg, reference compound] | does not form gel | does not form gel | AS/IS (AS/IS for aqueous solution or insoluble) | AS/IS (AS/IS for aqueous solution or insoluble) | 100 % of positive control |  |  |  |  |  |  | gel formation at 30% w/w ([1]; 30% w/w in water): does not form gel; Physical property at 11% w/w ([1]; Table 1, 11% w/w in aqueous solution, room temperature): AS/IS; gel formation in aqueous solution, 30% ([1]; Table 3, 30% w/w): AS/IS (AS/IS for aqueous solution or insoluble); propensity to form gels, wild-type counterparts, 11% ([1]; Table 5, 11% w/w): AS/IS; propensity to form gels, wild-type counterparts, 20% ([1]; Table 5, 20% w/w): AS/IS |
| CCCCCCCCCCCCCCCC(=O)N[C@@H](CCCCN)C(=O)N[C@@H](CO)C(=O)N[C@@H](Cc1ccc(O)cc1)C(=O)N[C@@H](CO)C(=O)N[C@@H](CC(C)C)C(=O)N[C@@H](CC(=O)O)C(=O)N[C@H](C(=O)N1CCC[C@H]1C(=O)N[C@H](C(=O)N[C@@H](CC(N)=O)C(=O)N[C@H](C(=O)N[C@@H](CCSC)C(=O)N[C@@H](CC(N)=O)C(=O)N[C@@H](CC(C)C)C(=O)N[C@@H](CC(C)C)C(=O)N[C@@H](Cc1ccccc1)C(=O)N[C@@H](CC(N)=O)C(=O)N[C@H](C(=O)N[C@@H](C)C(=O)N[C@@H](CCCCN)C(=O)N[C@@H](C)C(=O)N[C@@H](CCCCN)C(=O)N[C@@H](CC(N)=O)C(=O)N[C@@H](CC(C)C)C(=O)N[C@@H](CCCNC(=N)N)C(=O)N[C@@H](C)C(=O)N[C@@H](CCC(N)=O)C(=O)N[C@@H](C)C(=O)N[C@@H](C)C(=O)N[C@@H](C)C(=O)N[C@@H](CC(N)=O)C(=O)N[C@@H](C)C(=O)N[C@@H](Cc1c[nH]cn1)C(=O)N[C@@H](CC(C)C)C(=O)N[C@@H](CCSC)C(=O)N[C@@H](C)C(=O)N[C@@H](CCC(N)=O)C(=O)N[C@H](C(N)=O)[C@@H](C)CC)[C@@H](C)CC)[C@@H](C)CC)[C@@H](C)O)C(C)C [SEQ ID NO:231] (Palmitoyl-KSYSLDVPTNIMNLLFNIAKAKNLRAQAAANAHLMAQI-NH2) |  |  | SS (SS for semisolid gel) |  |  | SS (SS for semisolid gel) | SS (An ability to form semisolid gel is represented by an SS) | SS (An ability to form semisolid gel is represented by an SS) | 78 % of positive control |  |  | EC50 [3]: 0.0057 µM |
| CCCCCCCCCCCCCCCC(=O)N[C@@H](Cc1c[nH]cn1)C(=O)N[C@@H](CO)C(=O)N[C@@H](Cc1ccc(O)cc1)C(=O)N[C@@H](CO)C(=O)N[C@@H](CCC(=O)O)C(=O)N[C@H](C(=O)N[C@@H](CCC(N)=O)C(=O)N[C@@H](CC(C)C)C(=O)N[C@@H](CCSC)C(=O)N[C@@H](Cc1c[nH]cn1)C(=O)N[C@@H](CC(N)=O)C(=O)N[C@@H](CC(C)C)C(=O)NCC(=O)N[C@@H](CCCCN)C(=O)N[C@@H](Cc1c[nH]cn1)C(=O)N[C@@H](CC(C)C)C(=O)N[C@@H](CC(N)=O)C(=O)N[C@@H](CO)C(=O)N[C@@H](CCSC)C(=O)N[C@@H](CCC(=O)O)C(=O)N[C@@H](CCCNC(=N)N)C(=O)N[C@H](C(=O)N[C@@H](CCC(=O)O)C(=O)N[C@@H](Cc1c[nH]c2ccccc12)C(=O)N[C@@H](CC(C)C)C(=O)N[C@@H](CCCNC(=N)N)C(=O)N[C@@H](CCCCN)C(=O)N[C@@H](CCCCN)C(=O)N[C@@H](CC(C)C)C(=O)N[C@@H](CCC(N)=O)C(=O)N[C@@H](CC(=O)O)C(=O)N[C@H](C(=O)N[C@@H](Cc1c[nH]cn1)C(=O)N[C@@H](CC(N)=O)C(=O)N[C@@H](Cc1ccccc1)C(=O)O)C(C)C)C(C)C)[C@@H](C)CC [SEQ ID NO:232] (Palmitoyl-HSYSEIQLMHNLGKHLNSMERVEWLRKKLQDVHNF-OH; C-terminus assumed) | liquid gel | semisolid gel |  | SS (SS for semisolid gel) |  |  |  |  |  | SS (An ability to form semisolid gel is represented by an SS) | 59 % of positive control |  |
| CCCCCCCCCCCCCCCC(=O)N[C@@H](Cc1c[nH]cn1)C(=O)N[C@@H](CO)C(=O)N[C@@H](Cc1ccc(O)cc1)C(=O)N[C@H](CCCNC(=N)N)C(=O)N[C@@H](CCCNC(=N)N)C(=O)N1CCC[C@H]1C(=O)N1C[C@H](O)C[C@H]1C(=O)NCC(=O)N[C@@H](Cc1cccs1)C(=O)N[C@@H](CO)C(=O)N1Cc2ccccc2C[C@@H]1C(=O)N1[C@H](C(=O)N[C@@H](CCCNC(=N)N)C(N)=O)C[C@@H]2CCCC[C@@H]21 [SEQ ID NO:234, Pal-HSY-(D-Arg)-Arg-Pro-Hyp-Gly-Thi-Ser-(D-Tic)-Oic-Arg-NH2] |  | semisolid gel | AS/IS (AS/IS for aqueous solution or insoluble) | SS (SS for semisolid gel) | 112 % of positive control | AS/IS (AS/IS for aqueous solution or insoluble) | AS/IS | AS/IS |  | SS (An ability to form semisolid gel is represented by an SS) |  | IC50 ([2]; bradykinin-stimulated): 0.0533 µM |
| PTH (1-34) [reference compound] |  |  |  |  |  |  |  |  |  |  | 101 % of positive control |  |
| Palmitoyl-SSPHSY[AEEA]IVLSLDVPIGLLQILLEQARARAAREQATTNARILARVGHC-NH2 [SEQ ID NO:230] |  | semisolid or liquid gel | AS/IS (AS/IS for aqueous solution or insoluble) | SS (SS for semisolid gel) |  |  |  | AS/IS | 100 % of positive control | SS (An ability to form semisolid gel is represented by an SS) |  |  |
